Data from ChEMBL document CHEMBL4622894, “An effective method to produce 7-epitaxol from taxol in HCO3” (Bioorg Med Chem Lett, 2020).
pIC50: −log10 of the molar value.

Legend:
Saccharomyces cerevisiae [1] = assay: Antifungal activity against Saccharomyces cerevisiae AD18 assessed as fungal growth inhibition; format: functional, organism-based
Saccharomyces cerevisiae [2] = assay: Antifungal activity against Saccharomyces cerevisiae S288C assessed as fungal growth inhibition; format: functional, organism-based

| Structure (SMILES) | pIC50 (Saccharomyces cerevisiae [1]) | pIC50 (Saccharomyces cerevisiae [2]) |
| --- | --- | --- |
| CC(=O)O[C@H]1C(=O)[C@@]2(C)[C@H]([C@H](OC(=O)c3ccccc3)[C@]3(O)C[C@H](OC(=O)[C@H](O)[C@@H](NC(=O)c4ccccc4)c4ccccc4)C(C)=C1C3(C)C)[C@]1(OC(C)=O)CO[C@@H]1C[C@@H]2O [PACLITAXEL] | < 4.00 | < 4.00 |
| CC(=O)O[C@H]1C(=O)[C@]2(C)[C@H](O)C[C@H]3OC[C@@]3(OC(C)=O)[C@H]2[C@H](OC(=O)c2ccccc2)[C@]2(O)C[C@H](OC(=O)[C@H](O)[C@@H](NC(=O)c3ccccc3)c3ccccc3)C(C)=C1C2(C)C | 4.15 | < 4.00 |
